Results reported in patent US20060063794A1, “Method of attenuating graft rejection” (Fujisawa Pharmaceutical Co., Ltd., priority 2004, published 2006).
Entries after “also recorded” stand apart in the source; their conditions may differ.

Key:
CMV = details: animal models; cited from earlier work
[1] = test system: human kidney transplant recipients; assay: Same trial: safety, adverse events, laboratory values, withdrawals; format: in vivo; details: for Median serum creatine value: at study end; for Mean hemoglobin level: day 84
Description: FK778 and placebo were administered in a double-blind manner. […] Patients in arm 2 received one dose of 600 mg/day and continued on 75 mg/day. Subsequent doses were adjusted to maintain trough levels of FK778 in the range of 100-200 μg/mL (arm 1) and 10-100 μg/mL (arm 2). Trough levels of FK778 were centrally determined. Doses of FK778 were adjusted according to the recommendations of an independent panel. Treatment of adults of both genders was studied in a multi-center, randomized, double-blind trial. Three groups were studied. Group H was treated with high dose FK778/tarcolimus/steroids; Group L was treated with low dose FK778/tarcolimus/steroids; and Group P was treated with placebo/Tacrolimus/steroids. Tacrolimus was given as an initial dose of 0.2 mg/kg per os divided into two equal doses, one pre-operatively and one post-operatively. Subsequent doses were adjusted to reach target Tacrolimus whole blood trough concentrations of 10-20 ng/mL on Days 0-30, and 5-15 ng/mL on Days 31-84. Methylprednisolone was perioperatively administered at 1000 mg i.v. or less and 125 mg on Day 1. A prednisolone equivalent was given orally at 20 mg from Day 2-14, at 15 mg on Day 15-28, at 10 mg from Day 29-42 and 5 mg from Day 43-84. Oral tablets of FK778/placebo were administered in a double-blind manner. […] This was the maximum permitted daily dose of FK778. […] Dose adaptations were to be performed from day 7 onwards. Subsequent doses were adjusted to maintain plasma trough levels of FK778 in the target ranges of 100-200 μg/mL (H) and 10-100 μg/mL (L). The primary efficacy endpoint was the incidence of AR proven by local biopsy over the first 12 weeks. […] On a continuous basis safety was assessed by patient and graft survival, adverse event monitoring, routine laboratory evaluations and vital signs. Treatment emergent adverse events were coded according to the MedDRA dictionary (version 5.0). All analyses were based on the full analysis set which included all patients randomised who received at least one dose of FK778/placebo (intent-to-treat principle). Decreasing Kaplan-Meier plots were provided. Pair-wise comparisons of the incidence of adverse events between the treatment groups were made using Fisher's exact test.

Question: For `C#CCC/C(O)=C(\C#N)C(=O)Nc1ccc(C(F)(F)F)cc1` [FK778, (2Z)-2-cyano-3-hydroxy-N-[4-(trifluromethyl)phenyl]-2-hepten-6-ynamide], which “Effect on CMV disease” value (CMV) is on record?
Answer: attenuates CMV disease

Question: And the “Overall assessment of the trial” value ([1]; FK778 with Tacrolimus and corticosteroids, renal transplantation)?
Answer: pharmacologically active, well tolerated, and safe; also recorded: pharmacologically active, well tolerated and safe

Question: What about the “Anemias NEC, number of patients” value ([1]; High level FK778 (group H)) of the same molecule?
Answer: 21

Question: What about the “Angina pectoris, number of patients” value ([1]; High level FK778 (group H)) of the same molecule?
Answer: 1

Question: And the “Hyperkalemia (%)” value ([1]; High level FK778 (group H))?
Answer: (4.1) %

Question: And the “Hyperkalemia, number of patients” value ([1]; High level FK778 (group H))?
Answer: 2

Question: What about the “Hypokalemia (%)” value ([1]; High level FK778 (group H)) of the same molecule?
Answer: (12.2) %

Question: And the “Hypokalemia, number of patients” value ([1]; High level FK778 (group H))?
Answer: 6

Question: And the “Ischemic coronary artery disorders (%)” value ([1]; High level FK778 (group H))?
Answer: (4.1) %

Question: What about the “Ischemic coronary artery disorders, number of patients” value ([1]; High level FK778 (group H)) of the same molecule?
Answer: 2

Question: And the “Myocard. Ischemia, number of patients” value ([1]; High level FK778 (group H))?
Answer: 1

Question: What about the “O. NOS, number of patients” value ([1]; High level FK778 (group H)) of the same molecule?
Answer: 1

Question: What about the “O. hemorrhagic, number of patients” value ([1]; High level FK778 (group H)) of the same molecule?
Answer: 1

Question: What about the “Oesophagilis (%)” value ([1]; High level FK778 (group H)) of the same molecule?
Answer: (8.2) %

Question: And the “Oesophagilis, number of patients” value ([1]; High level FK778 (group H))?
Answer: 4

Question: And the “Reflux O., number of patients” value ([1]; High level FK778 (group H))?
Answer: 2

Question: And the “Withdrawn: Adverse event (%)” value ([1]; High level FK778 (group H))?
Answer: (18.4) %

Question: And the “Withdrawn: Adverse event, number of patients” value ([1]; High level FK778 (group H))?
Answer: 9

Question: And the “Withdrawn: Death (%)” value ([1]; High level FK778 (group H))?
Answer: (2.0) %

Question: And the “Withdrawn: Death, number of patients” value ([1]; High level FK778 (group H))?
Answer: 1

Question: What about the “Withdrawn: Graft failure (%)” value ([1]; High level FK778 (group H)) of the same molecule?
Answer: (6.1) %

Question: And the “Withdrawn: Graft failure, number of patients” value ([1]; High level FK778 (group H))?
Answer: 3

Question: And the “Withdrawn from treatment (%)” value ([1]; High level FK778 (group H) + Tacrolimus/steroids)?
Answer: (28.6) %

Question: And the “Withdrawn from treatment, number of patients” value ([1]; High level FK778 (group H) + Tacrolimus/steroids, N=49)?
Answer: 14

Question: And the “Anemias NEC, number of patients” value ([1]; Low level FK778 (group L))?
Answer: 17

Question: And the “Angina pectoris, number of patients” value ([1]; Low level FK778 (group L))?
Answer: 5

Question: And the “Hyperkalemia (%)” value ([1]; Low level FK778 (group L))?
Answer: (11.1) %

Question: What about the “Hyperkalemia, number of patients” value ([1]; Low level FK778 (group L)) of the same molecule?
Answer: 6

Question: What about the “Hypokalemia (%)” value ([1]; Low level FK778 (group L)) of the same molecule?
Answer: (0.0) %

Question: And the “Hypokalemia, number of patients” value ([1]; Low level FK778 (group L))?
Answer: 0

Question: What about the “Ischemic coronary artery disorders (%)” value ([1]; Low level FK778 (group L)) of the same molecule?
Answer: (13.0) %

Question: And the “Ischemic coronary artery disorders, number of patients” value ([1]; Low level FK778 (group L))?
Answer: 7

Question: What about the “Myocard. Infarction, number of patients” value ([1]; Low level FK778 (group L)) of the same molecule?
Answer: 1

Question: And the “Myocard. Ischemia, number of patients” value ([1]; Low level FK778 (group L))?
Answer: 1

Question: What about the “Oesophagilis (%)” value ([1]; Low level FK778 (group L)) of the same molecule?
Answer: (0.0) %

Question: What about the “Oesophagilis, number of patients” value ([1]; Low level FK778 (group L)) of the same molecule?
Answer: 0

Question: What about the “Withdrawn: Adverse event (%)” value ([1]; Low level FK778 (group L)) of the same molecule?
Answer: (13.0) %

Question: And the “Withdrawn: Adverse event, number of patients” value ([1]; Low level FK778 (group L))?
Answer: 7

Question: What about the “Withdrawn: Graft failure (%)” value ([1]; Low level FK778 (group L)) of the same molecule?
Answer: (5.6) %

Question: And the “Withdrawn: Graft failure, number of patients” value ([1]; Low level FK778 (group L))?
Answer: 3

Question: What about the “Withdrawn from treatment (%)” value ([1]; Low level FK778 (group L) + Tacrolimus/steroids) of the same molecule?
Answer: (25.9) %

Question: And the “Withdrawn from treatment, number of patients” value ([1]; Low level FK778 (group L) + Tacrolimus/steroids, N=54)?
Answer: 14

Question: And the “Withdrawn: Death, number of patients” value ([1]; Low level FK778 (group L), one patient died the day after withdrawal)?
Answer: 0

Question: And the Reversibility of anemia ([1]; after cessation of FK778 treatment)?
Answer: reversible after cessation of FK778 treatment; also recorded: quickly reversed after cessation of FK778 treatment

Question: And the “Systolic and diastolic blood pressure values” ([1]; both FK778 arms)?
Answer: trend towards lower

Question: What about the “Mean total cholesterol and mean LDL-cholesterol levels, lower compared to placebo group” value ([1]; both FK778 groups, during the treatment phase) of the same molecule?
Answer: ~20%

Question: And the Bilirubin levels ([1]; group H)?
Answer: slightly elevated

Question: What about the “Median serum creatine value” ([1]; group H) of the same molecule?
Answer: 138 µmol/L

Question: What about the Mean hemoglobin level ([1]; group H) of the same molecule?
Answer: 102.6 g/L

Question: What about the “Patients who died during the study” value ([1]; group H, high level FK778) of the same molecule?
Answer: one

Question: And the “Median serum creatine value” ([1]; group L)?
Answer: 149 µmol/L

Question: What about the Mean hemoglobin level ([1]; group L) of the same molecule?
Answer: 119 g/L

Question: What about the “Patients who died during the study” value ([1]; group L, low level FK778) of the same molecule?
Answer: one

Question: What about the Liver enzyme values ([1]; throughout the study) of the same molecule?
Answer: no changes
